Test results reported in EP3219329A1, “COMBINATIONS OF COPANLISIB” (Bayer Pharma Aktiengesellschaft, priority 2016, dated 2017).

Test system: primary (PDX) human lymphoma model LY2298
Experiment: In vivo B cell lymphoma xenograft model (PDX)
Description: Anti-tumor activity of cpd. B has been analyzed in murine xenograft models. For that purpose tumor fragments from stock mice inoculated with primary human lymphoma tissue were harvested and used for inoculation into female NOD/SCID mice. Each mouse was inoculated subcutaneously at the right flank with primary (PDX) human lymphoma model LY2298 fragment (P7, 2-4 mm in diameter) for tumor development. The treatment was started when the average tumor size reached about 158 mm^3. Mice were allocated randomly into experimental groups according to their tumor sizes, 10 mice per group. The day was denoted as day 0. Treatments were administrated to tumor-bearing mice from day 1 through day 34. Treatment groups were: vehicle control, cpd. B monotherapy, cpd. A monotherapy and combination of cpd. B and cpd A (Table C). Body weights were determined twice per week. Changes in body weight were depicted as treatment related toxicities (>10% stop treatment, >20% termination). Tumor sizes were measured twice weekly in two dimensions using a caliper, and the volume is expressed in mm^3 using the formula: V = 0.5 a x b^2, where a and b are the long and short diameters of the tumor, respectively. The T/C value is an indicator of tumor response to treatment and commonly used as anti-tumor activity endpoint. T and C are the mean tumor volume of the treated and control groups, respectively. Statistical analysis of difference in tumor volume among the groups was evaluated using one-way ANOVA followed by pairweise comparison procedures (Dunett method). P < 0.05 was considered to be statistically significant.
B in monotherapy and combination therapy with cpd. A during treatment of human LY2298 ABC-DLBCL tumors. Cpd. B has been applied orally upon a dose of 20 mg/kg once daily. Cpd. A was applied intraveneously for 2 days followd by a 5 day treatment break upon a dose of 14 mg/kg. Cpd. […] Cpd. […] TABLE C: Anti-Tumor activity of cpd. B in monotherapy and combination with cpd. A in LY2298 PDX model in NOD/SCID mice.

## COc1c(OCCCN2CCOCC2)ccc2c1N=C(NC(=O)c1cnc(N)nc1)N1CCN=C21.Cl.Cl [cpd. A, 2-amino-N-[7-methoxy-8-(3-morpholin-4-ylpropoxy)-2,3-dihydroimid-azo[1,2-c]quinazolin-5-yl]pyrimidine-5-carboxamide dihydrochloride]
LY2298 PDX in NOD/SCID mice, cpd. B 20 mg/kg QD p.o., cpd. A 14 mg/kg QD 2on/5off i.v., maximum mean loss as percent of starting weight
  Max. body weight loss (%): -5%
LY2298 PDX in NOD/SCID mice, cpd. B 20 mg/kg QD p.o., cpd. A 14 mg/kg QD 2on/5off i.v., mean tumor volume treated/control, * P<0.05 vs. Vehicle
  T/C Volume (at day 20): 0.22*
LY2298 PDX in NOD/SCID mice, cpd. B 20 mg/kg QD p.o., cpd. A 14 mg/kg QD 2on/5off i.v., number of tumors per response class, 10 mice per group
  Response (at termination): 7x PD, 1x SD, 1x PR, 1x CR
Human LY2298 ABC-DLBCL tumors, cpd. B 20 mg/kg once daily orally, cpd. A 14 mg/kg i.v. 2 days on, 5 days break, result in words
  anti-tumor activity: initially a strong anti-tumor activity but after 20 treatment days a clear tumor relapse
